Reference: paper PMC8648042, “IMB-XMA0038, a new inhibitor targeting aspartate-semialdehyde dehydrogenase of Mycobacterium tuberculosis” (Emerging Microbes & Infections, 2021)

Target: T1, Aspartate-semialdehyde dehydrogenase (MtASADH) (Mycobacterium tuberculosis, UniProt P9WNX5)
T1 construct: gene asd
Assay: SPR with MtASADH immobilized on CM5 chip; also IC50 […] in LysC-coupled NADPH enzyme assay
Assay type: binding

T1 sequence (P9WNX5 whole entry, looked up): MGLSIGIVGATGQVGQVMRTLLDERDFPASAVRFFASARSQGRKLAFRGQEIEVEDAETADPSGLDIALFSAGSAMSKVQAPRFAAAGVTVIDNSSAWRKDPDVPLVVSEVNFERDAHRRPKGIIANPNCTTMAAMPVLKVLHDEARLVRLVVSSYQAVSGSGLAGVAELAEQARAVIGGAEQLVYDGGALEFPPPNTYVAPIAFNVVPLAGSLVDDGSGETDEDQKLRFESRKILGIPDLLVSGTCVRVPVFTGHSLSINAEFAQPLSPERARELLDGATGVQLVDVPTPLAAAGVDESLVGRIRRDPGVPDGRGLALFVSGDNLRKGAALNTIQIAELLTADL

O=C(Nc1nnc(C2CCCO2)o1)c1ccc([N+](=O)[O-])o1 (stereo not shown) [IMB-XMA0038, 5-nitro-N-(5-(tetrahydrofuran-2-yl)-1,3,4-oxadiazol-2-yl)furan-2-carboxamide]
Kd: 365 µM
